Compound: O=c1cc(CBr)c2ccccc2[nH]1
- solubility (mole fraction) (in NMP, 278.15 K): 0.00539
- solubility (mole fraction) (in NMP, 283.15 K): 0.00606
- solubility (mole fraction) (in NMP, 288.15 K): 0.00705
- solubility (mole fraction) (in NMP, 293.15 K): 0.0081
- solubility (mole fraction) (in NMP, 298.15 K): 0.00928
- solubility (mole fraction) (in NMP, 303.15 K): 0.0105
- solubility (mole fraction) (in NMP, 308.15 K): 0.0119
- solubility (mole fraction) (in NMP, 313.15 K): 0.0135
- solubility (mole fraction) (in NMP, 318.15 K): 0.0151
- solubility (mole fraction) (in ethanol, 278.15 K): 0.00019
- solubility (mole fraction) (in ethanol, 283.15 K): 0.000211
- solubility (mole fraction) (in ethanol, 288.15 K): 0.000235
- solubility (mole fraction) (in ethanol, 293.15 K): 0.000261
- solubility (mole fraction) (in ethanol, 298.15 K): 0.000286
- solubility (mole fraction) (in ethanol, 303.15 K): 0.000316
- solubility (mole fraction) (in ethanol, 308.15 K): 0.000347
- solubility (mole fraction) (in ethanol, 313.15 K): 0.000378
- solubility (mole fraction) (in ethanol, 318.15 K): 0.000411
- solubility (mole fraction) (in isopropanol, 278.15 K): 0.000152
- solubility (mole fraction) (in isopropanol, 283.15 K): 0.000175
- solubility (mole fraction) (in isopropanol, 288.15 K): 0.000202
- solubility (mole fraction) (in isopropanol, 293.15 K): 0.000229
- solubility (mole fraction) (in isopropanol, 298.15 K): 0.00026
- solubility (mole fraction) (in isopropanol, 303.15 K): 0.000293
- solubility (mole fraction) (in isopropanol, 308.15 K): 0.000328
- solubility (mole fraction) (in isopropanol, 313.15 K): 0.000365
- solubility (mole fraction) (in isopropanol, 318.15 K): 0.000406
- solubility (mole fraction) (in n-propanol, 278.15 K): 0.000242
- solubility (mole fraction) (in n-propanol, 283.15 K): 0.000269
- solubility (mole fraction) (in n-propanol, 288.15 K): 0.000297
- solubility (mole fraction) (in n-propanol, 293.15 K): 0.000325
- solubility (mole fraction) (in n-propanol, 298.15 K): 0.000357
- solubility (mole fraction) (in n-propanol, 303.15 K): 0.00039
- solubility (mole fraction) (in n-propanol, 308.15 K): 0.00043
- solubility (mole fraction) (in n-propanol, 313.15 K): 0.000466
- solubility (mole fraction) (in n-propanol, 318.15 K): 0.000505
- solubility (mole fraction) (in water, 278.15 K): 4.78e-06
- solubility (mole fraction) (in water, 283.15 K): 6.58e-06
- solubility (mole fraction) (in water, 288.15 K): 9.12e-06
- solubility (mole fraction) (in water, 293.15 K): 1.25e-05
- solubility (mole fraction) (in water, 298.15 K): 1.67e-05
- solubility (mole fraction) (in water, 303.15 K): 2.16e-05
- solubility (mole fraction) (in water, 308.15 K): 2.88e-05
- solubility (mole fraction) (in water, 313.15 K): 3.76e-05
- solubility (mole fraction) (in water, 318.15 K): 4.76e-05

Source: BigSolDB 2.1
